From the NIST ThermoML archive (doi:10.1021/je900460m) come the findings set out here.

Molecules are shown by their SMILES. ± gives the expanded uncertainty stated by the source.

For the molecule `CCCCCCn1cc[n+](C)c1.N#C[S-]` [1-hexyl-3-methylimidazolium thiocyanate], under “298.15 K, 101.33 kPa, Liquid, Pycnometric method”, the mass density was found to be 1056.92 ± 11 kg/m3. The viscosity (298.15 K, Liquid, Capillary tube (Ostwald / Ubbelohde) method) is 93.62 ± 3.1 mPa·s. Also, the Glass transition temperature (Glass, visual observation) is -83.2 ± 3 °C.

One may read the mass density as mass per unit of volume. The viscosity is the resistance of a fluid to flow.
